From the NIST ThermoML archive (doi:10.1021/je900259b)
Numbers after ± are expanded uncertainties.

Experiments:
[1] = Liquid; for mass density: 298.15 K, 101.33 kPa, Vibrating tube method; for vapor or sublimation pressure: Closed cell (Static) method; for Normal boiling temperature: Ebulliometric method (Recirculating still)
[2] = refractive index (Na D-line) (dimensionless); details: 298.15 K; 101.33 kPa; Liquid; Standard Abbe refractometry

With `COCCO` [2-methoxyethan-1-ol] the mass density [1] was 960.02 ± 0.06 kg/m3, the “vapor or sublimation pressure” value ([1]; 345.94 K) was 14.98 ± 0.2 kPa and the “vapor or sublimation pressure” value ([1]; 349.54 K) was 17.51 ± 0.2 kPa. For the same compound, the “vapor or sublimation pressure” value ([1]; 352.72 K) was 20.02 ± 0.2 kPa, the “vapor or sublimation pressure” value ([1]; 355.49 K) was 22.45 ± 0.2 kPa and the “vapor or sublimation pressure” value ([1]; 358.12 K) was 25.02 ± 0.2 kPa. The “vapor or sublimation pressure” value ([1]; 360.51 K) was 27.53 ± 0.21 kPa, the “vapor or sublimation pressure” value ([1]; 362.72 K) was 29.98 ± 0.21 kPa and the “vapor or sublimation pressure” value ([1]; 364.76 K) was 32.52 ± 0.21 kPa. The “vapor or sublimation pressure” value ([1]; 366.62 K) was 34.91 ± 0.21 kPa, the “vapor or sublimation pressure” value ([1]; 368.51 K) was 37.49 ± 0.21 kPa and the “vapor or sublimation pressure” value ([1]; 370.14 K) was 39.92 ± 0.21 kPa. For the same compound, the “vapor or sublimation pressure” value ([1]; 371.85 K) was 42.51 ± 0.21 kPa, the “vapor or sublimation pressure” value ([1]; 373.35 K) was 44.91 ± 0.21 kPa and the “vapor or sublimation pressure” value ([1]; 374.89 K) was 47.49 ± 0.21 kPa. The “vapor or sublimation pressure” value ([1]; 376.28 K) was 49.96 ± 0.21 kPa, the “vapor or sublimation pressure” value ([1]; 377.65 K) was 52.42 ± 0.22 kPa and the “vapor or sublimation pressure” value ([1]; 378.98 K) was 54.96 ± 0.22 kPa. For the same compound, the “vapor or sublimation pressure” value ([1]; 380.23 K) was 57.48 ± 0.22 kPa, the “vapor or sublimation pressure” value ([1]; 381.44 K) was 59.94 ± 0.22 kPa and the “vapor or sublimation pressure” value ([1]; 382.64 K) was 62.46 ± 0.22 kPa. The “vapor or sublimation pressure” value ([1]; 383.74 K) was 64.87 ± 0.22 kPa, the “vapor or sublimation pressure” value ([1]; 384.89 K) was 67.49 ± 0.23 kPa and the “vapor or sublimation pressure” value ([1]; 385.95 K) was 69.92 ± 0.23 kPa. The “vapor or sublimation pressure” value ([1]; 387.02 K) was 72.45 ± 0.23 kPa, the “vapor or sublimation pressure” value ([1]; 388.02 K) was 74.99 ± 0.23 kPa and the “vapor or sublimation pressure” value ([1]; 388.98 K) was 77.41 ± 0.23 kPa. The “vapor or sublimation pressure” value ([1]; 389.94 K) was 79.86 ± 0.23 kPa, the “vapor or sublimation pressure” value ([1]; 390.92 K) was 82.45 ± 0.24 kPa and the “vapor or sublimation pressure” value ([1]; 391.85 K) was 84.96 ± 0.24 kPa. For the same compound, the “vapor or sublimation pressure” value ([1]; 392.74 K) was 87.49 ± 0.24 kPa, the “vapor or sublimation pressure” value ([1]; 393.61 K) was 89.96 ± 0.24 kPa and the “vapor or sublimation pressure” value ([1]; 394.47 K) was 92.48 ± 0.24 kPa. The “vapor or sublimation pressure” value ([1]; 395.32 K) was 94.94 ± 0.25 kPa, the “vapor or sublimation pressure” value ([1]; 396.12 K) was 97.48 ± 0.25 kPa and the “vapor or sublimation pressure” value ([1]; 396.96 K) was 100.03 ± 0.25 kPa. The “vapor or sublimation pressure” value ([1]; 397.37 K) was 101.3 ± 0.3 kPa and the refractive index [2] was 1.4006 ± 0.0005.

For `C1CCCCC1` [cyclohexane], the mass density [1] was 773.82 ± 0.13 kg/m3, the Normal boiling temperature [1] was 80.58 ± 0.2 °C and the refractive index [2] was 1.4238 ± 0.0005.

In the case of `C1=CCCCC1` [cyclohexene], the mass density [1] is reported as 805.69 ± 0.14 kg/m3, the Normal boiling temperature [1] is reported as 82.82 ± 0.2 °C and the refractive index [2] is reported as 1.4444 ± 0.0005.
